Results from patent publication US8507251B2, “Medium and method for culturing Mycobacterium avium subspecies paratuberculosis” (priority 2009, dated 2013).
Where “and” joins values, the source holds several entries; their conditions need not be identical. Identical values can stand only once. Like-named read-outs stand apart in the source and are kept apart here.

How the values were obtained:
[1] = test system: MAP strain Dominic (ATCC 43545); assay: radiometric 14CO2 BACTEC 460 growth culture, MAP Dominic; format: cell-based, Mycobacterium avium subspecies paratuberculosis
[2] = test system: MAP strain UCF-4; assay: radiometric 14CO2 BACTEC 460 growth culture, MAP UCF-4; format: cell-based, Mycobacterium avium subspecies paratuberculosis
[3] = test system: MAP ATCC 19698; assay: radiometric 14CO2 BACTEC 460 growth culture, MAP 19698; format: cell-based, Mycobacterium avium subspecies paratuberculosis
[4] = test system: MAP 303; assay: radiometric 14CO2 BACTEC 460 growth culture, MAP 303; format: cell-based, Mycobacterium avium subspecies paratuberculosis
[5] = test system: M. avium ATCC 25291; assay: radiometric 14CO2 BACTEC 460 growth culture, M. avium 25291; format: cell-based, M. avium subspecies avium; details: for effect on growth (in words): at the doses tested
[6] = test system: M. avium 101; assay: radiometric 14CO2 BACTEC 460 growth culture, M. avium 101; format: cell-based, M. avium subspecies avium
[7] = test system: Bacillus Callmette Guerin (BCG) M. bovis Karlson & Lessel (ATCC 19015); format: cell-based; details: for effect on growth (in words): at the doses tested
[8] = test system: avirulent M. tb strain ATCC 25177; format: cell-based, M. tuberculosis
[9] = test system: M. avium; format: cell-based, M. avium subspecies avium; details: 4 μg/ml; value is a decrease
[10] = 1 μg/ml, first of the two values (two experiments)
[11] = 4 μg/ml, first of the two values (two experiments)
[12] = 16 μg/ml, first of the two values (two experiments)
[13] = 64 μg/ml, first of the two values (two experiments)
[14] = 1 μg/ml, second of the two values (two experiments)
[15] = 4 μg/ml, second of the two values (two experiments)
[16] = 16 μg/ml, second of the two values (two experiments)
[17] = 64 μg/ml, second of the two values (two experiments)

`NC(=O)c1cccnc1` [Nicotinamide, nicotinamide] was tested, and the “percent change from control cGI (% ΔcGI / % −ΔcGI)” value (“percent change … (% ΔcGI / % −ΔcGI)” below) ([1]; 0.1 μg/ml, second value printed in Table 4) was 32%, the “percent change … (% ΔcGI / % −ΔcGI)” value ([1]; 0.4 μg/ml, second value printed in Table 4) was 98% and the “percent change … (% ΔcGI / % −ΔcGI)” value [1, 10] was 110%. The “percent change … (% ΔcGI / % −ΔcGI)” value ([1]; 1.6 μg/ml, second value printed in Table 4) was 156%, the “percent change … (% ΔcGI / % −ΔcGI)” value [1, 11] was 115% and the “percent change … (% ΔcGI / % −ΔcGI)” value ([1]; 6.4 μg/ml, second value printed in Table 4) was 156%. The “percent change … (% ΔcGI / % −ΔcGI)” value [1, 12] was 125%, the “percent change … (% ΔcGI / % −ΔcGI)” value [1, 13] was 106% and the “effect on growth (in words)” value ([1]; at the doses tested) was “enhanced”. For the same compound, the “percent increase from control cGI (%+ΔcGI)” value ([1]; for 1, 4, 16 and 64 μg/ml, first experiment) was ≥ 100%, the “percent change … (% ΔcGI / % −ΔcGI)” value ([2]; 0.1 μg/ml) was 20% and the “percent change … (% ΔcGI / % −ΔcGI)” value ([2]; 0.4 μg/ml) was 52%. For the same compound, the “percent change … (% ΔcGI / % −ΔcGI)” value ([2]; 1.6 μg/ml) was 73%, the “percent change … (% ΔcGI / % −ΔcGI)” value ([2]; 6.4 μg/ml) was 79% and the “effect on growth (in words)” value ([2]; at the doses tested) was “enhanced”. The “percent change … (% ΔcGI / % −ΔcGI)” value ([3]; 0.1 μg/ml) was −6%, the “percent change … (% ΔcGI / % −ΔcGI)” value ([3]; 0.4 μg/ml) was −2% and the “percent change … (% ΔcGI / % −ΔcGI)” value ([3]; 1.6 μg/ml) was −8%. For the same compound, the “percent change … (% ΔcGI / % −ΔcGI)” value ([3]; 6.4 μg/ml) was −7%, the “effect on growth (in words)” value ([3]; at the doses tested) was “no effect” and the “percent change … (% ΔcGI / % −ΔcGI)” value ([4]; 0.1 μg/ml) was −5%. The “percent change … (% ΔcGI / % −ΔcGI)” value ([4]; 0.4 μg/ml) was −28%, the “percent change … (% ΔcGI / % −ΔcGI)” value ([4]; 1.6 μg/ml) was 11% and the “percent change … (% ΔcGI / % −ΔcGI)” value ([4]; 6.4 μg/ml) was 3%. For the same compound, the “effect on growth (in words)” value ([4]; at the doses tested) was “no effect”, the “percent change … (% ΔcGI / % −ΔcGI)” value ([5]; 0.1 μg/ml) was 23% and the “percent change … (% ΔcGI / % −ΔcGI)” value ([5]; 0.4 μg/ml) was 105%. For the same compound, the “percent change … (% ΔcGI / % −ΔcGI)” value ([5]; 1.6 μg/ml) was 157%, the “percent change … (% ΔcGI / % −ΔcGI)” value ([5]; 6.4 μg/ml) was 144% and the “effect on growth (in words)” value [5] was “caused enhancement of growth”. For the same compound, the “percent change … (% ΔcGI / % −ΔcGI)” value ([6]; 0.1 μg/ml) was 6%, the “percent change … (% ΔcGI / % −ΔcGI)” value ([6]; 0.4 μg/ml) was −21% and the “percent change … (% ΔcGI / % −ΔcGI)” value ([6]; 1.6 μg/ml) was 7%. For the same compound, the “percent change … (% ΔcGI / % −ΔcGI)” value ([6]; 6.4 μg/ml) was 58%, the “effect on growth (in words)” value ([6]; at the doses tested) was “caused enhancement of growth” and the “effect on growth (in words)” value [7] was “no effect”. For the same compound, the “effect on growth (in words)” value [8] was “no effect”.
With `O=C(O)c1cccnc1` [Nicotinic acid, nicotinic acid] the “percent change … (% ΔcGI / % −ΔcGI)” value [1, 10] was 46%, the “percent change … (% ΔcGI / % −ΔcGI)” value [1, 14] was 71% and the “percent change … (% ΔcGI / % −ΔcGI)” value [1, 11] was 133%. The “percent change … (% ΔcGI / % −ΔcGI)” value [1, 15] was 181%, the “percent change … (% ΔcGI / % −ΔcGI)” value [1, 12] was 195% and the “percent change … (% ΔcGI / % −ΔcGI)” value [1, 16] was 198%. The “percent change … (% ΔcGI / % −ΔcGI)” value [1, 13] was 197%, the “percent change … (% ΔcGI / % −ΔcGI)” value [1, 17] was 225% and the “percent change … (% ΔcGI / % −ΔcGI)” value ([2]; 1 μg/ml) was 48%. The “percent change … (% ΔcGI / % −ΔcGI)” value ([2]; 4 μg/ml) was 63%, the “percent change … (% ΔcGI / % −ΔcGI)” value ([2]; 16 μg/ml) was 101% and the “percent change … (% ΔcGI / % −ΔcGI)” value ([2]; 64 μg/ml) was 92%. The “percent change … (% ΔcGI / % −ΔcGI)” value ([2]; 64 μg/ml, listed as nicotinic acid) was 92%, the “percent change … (% ΔcGI / % −ΔcGI)” value ([3]; 1 μg/ml) was −17% and the “percent change … (% ΔcGI / % −ΔcGI)” value ([3]; 4 μg/ml) was −4%. For the same compound, the “percent change … (% ΔcGI / % −ΔcGI)” value ([3]; 16 μg/ml) was 12%, the “percent change … (% ΔcGI / % −ΔcGI)” value ([3]; 64 μg/ml) was 30% and the “effect on growth (in words)” value ([3]; at the doses tested) was “far less nicotinic acid induced enhancement”. The “percent change … (% ΔcGI / % −ΔcGI)” value ([4]; 1 μg/ml) was −4%, the “percent change … (% ΔcGI / % −ΔcGI)” value ([4]; 4 μg/ml) was 2% and the “percent change … (% ΔcGI / % −ΔcGI)” value ([4]; 16 μg/ml) was −4%. The “percent change … (% ΔcGI / % −ΔcGI)” value ([4]; 64 μg/ml) was 22%, the “effect on growth (in words)” value ([4]; at the doses tested) was “far less nicotinic acid induced enhancement” and the “percent change … (% ΔcGI / % −ΔcGI)” value ([5]; 1 μg/ml) was 98%. For the same compound, the “percent change … (% ΔcGI / % −ΔcGI)” value ([5]; 4 μg/ml) was 170%, the “percent change … (% ΔcGI / % −ΔcGI)” value ([5]; 16 μg/ml) was 167% and the “percent change … (% ΔcGI / % −ΔcGI)” value ([5]; 64 μg/ml) was 175%. For the same compound, the “effect on growth (in words)” value [5] was “enhanced growth”, the “percent change … (% ΔcGI / % −ΔcGI)” value ([6]; 1 μg/ml) was 41% and the “percent change … (% ΔcGI / % −ΔcGI)” value ([6]; 4 μg/ml) was 47%. The “percent change … (% ΔcGI / % −ΔcGI)” value ([6]; 16 μg/ml) was 40%, the “percent change … (% ΔcGI / % −ΔcGI)” value ([6]; 64 μg/ml) was 56% and the “effect on growth (in words)” value ([6]; at the doses tested) was “enhanced growth”.
For `Nc1ccc(C(=O)O)c(O)c1` [PAS, para-amino salicylic acid, reference compound], the “percent decrease from control cGI (%−ΔcGI)” value (“percent decrease … (%−ΔcGI)” for short) ([3]; 64 μg/ml, value is a decrease) was 80%, the “percent decrease … (%−ΔcGI)” value ([4]; 64 μg/ml, value is a decrease) was 80% and the “percent decrease … (%−ΔcGI)” value ([7]; 4 μg/ml) was ≥ 94%. For the same compound, the “percent decrease … (%−ΔcGI)” value [9] was ≥ 94%.
For `O=C(O)c1ccccc1O` [salicylic acid, reference compound], the “percent change … (% ΔcGI / % −ΔcGI)” value ([4]; 64 μg/ml) was 66%, the “percent change … (% ΔcGI / % −ΔcGI)” value ([5]; 64 μg/ml) was 104% and the “percent change … (% ΔcGI / % −ΔcGI)” value ([7]; 64 μg/ml) was 95%.
In the case of `NC(=O)c1ccc[n+]([C@H]2O[C@H](COP(=O)([O-])OP(=O)(O)OC[C@H]3O[C@@H](n4cnc5c(N)ncnc54)[C@H](O)[C@@H]3O)[C@@H](O)[C@H]2O)c1` [α-NAD, α-nicotinamide adenine dinucleotide], the “percent change … (% ΔcGI / % −ΔcGI)” value [1, 10] was 25%, the “percent change … (% ΔcGI / % −ΔcGI)” value [1, 14] was −16% and the “percent change … (% ΔcGI / % −ΔcGI)” value [1, 11] was 79%. For the same compound, the “percent change … (% ΔcGI / % −ΔcGI)” value [1, 15] was 35%, the “percent change … (% ΔcGI / % −ΔcGI)” value [1, 12] was 104% and the “percent change … (% ΔcGI / % −ΔcGI)” value [1, 16] was 78%. For the same compound, the “percent change … (% ΔcGI / % −ΔcGI)” value [1, 13] was 135%, the “percent change … (% ΔcGI / % −ΔcGI)” value [1, 17] was 115% and the “percent change … (% ΔcGI / % −ΔcGI)” value ([2]; 1 μg/ml) was 18%. For the same compound, the “percent change … (% ΔcGI / % −ΔcGI)” value ([2]; 4 μg/ml) was 35%, the “percent change … (% ΔcGI / % −ΔcGI)” value ([2]; 16 μg/ml) was 65% and the “percent change … (% ΔcGI / % −ΔcGI)” value ([2]; 64 μg/ml) was 81%. For the same compound, the “effect on growth (in words)” value [3] was “little or no effect”, the “percent change … (% ΔcGI / % −ΔcGI)” value ([3]; 1 μg/ml) was −16% and the “percent change … (% ΔcGI / % −ΔcGI)” value ([3]; 4 μg/ml) was −6%. For the same compound, the “percent change … (% ΔcGI / % −ΔcGI)” value ([3]; 16 μg/ml) was −17%, the “percent change … (% ΔcGI / % −ΔcGI)” value ([3]; 64 μg/ml) was 13% and the “effect on growth (in words)” value [4] was “little or no effect”. The “percent change … (% ΔcGI / % −ΔcGI)” value ([4]; 1 μg/ml) was 8%, the “percent change … (% ΔcGI / % −ΔcGI)” value ([4]; 4 μg/ml) was 9% and the “percent change … (% ΔcGI / % −ΔcGI)” value ([4]; 16 μg/ml) was −8%. The “percent change … (% ΔcGI / % −ΔcGI)” value ([4]; 64 μg/ml) was −18%, the “percent change … (% ΔcGI / % −ΔcGI)” value ([5]; 1 μg/ml) was −2% and the “percent change … (% ΔcGI / % −ΔcGI)” value ([5]; 4 μg/ml) was 160%. The “percent change … (% ΔcGI / % −ΔcGI)” value ([5]; 16 μg/ml) was 131%, the “percent change … (% ΔcGI / % −ΔcGI)” value ([5]; 64 μg/ml) was 147% and the “effect on growth (in words)” value [6] was “little or no effect”. For the same compound, the “percent change … (% ΔcGI / % −ΔcGI)” value ([6]; 1 μg/ml) was 39%, the “percent change … (% ΔcGI / % −ΔcGI)” value ([6]; 4 μg/ml) was −15% and the “percent change … (% ΔcGI / % −ΔcGI)” value ([6]; 16 μg/ml) was −21%. For the same compound, the “percent change … (% ΔcGI / % −ΔcGI)” value ([6]; 64 μg/ml) was −14%, the “effect on growth (in words)” value [7] was “little or no effect” and the “effect on growth (in words)” value [8] was “little or no effect”. The “percent change … (% ΔcGI / % −ΔcGI)” value [8] was 2% and −6% and −1% and 0%.
